In US6632816B1, “Aromatic derivatives as HIV aspartyl protease inhibitors” (Pharmacor Inc., priority 2002, dated 2003):
pEC50, pKi: −log10 of the molar value. Read-outs that look alike come from different tables or passages of the source.

Key:
HIV protease = HIV protease (Human immunodeficiency virus type 1 group M subtype B, UniProt P04585); experiment: biochemical
[1] = system: HIV-1 laboratory viral strain NL4.3 (wild type virus); experiment: Anti-viral assay in vitro (MTT, infected MT-4 cells); assay type: cell-based; settings: Human immunodeficiency virus 1, MT4, 144 h
Procedure: Anti-viral and Cytotoxicity Assays In Vitro
To evaluate the EC50 of our compounds, various drug concentrations are incubated with the infected cell for six days and then the metabolic activity of the cells is monitored by the MTT assay. (See A. J. Japour et al, Antimicrobial Agents and Chemotherapy, 37, 1095-1101, 1993 and R. Pauwels et al. Journal of Virological Methods, 20, 309-321, 1988)
We use the laboratory viral strain NL4.3 as wild type virus and the cell line used is MT-4 which is a T-cell line highly sensitive to HIV-1. We also use some WT clinical strains. To address the resistance issue we assay the inhibitors with NL4.3 mutants which are designed to be resistant to specific commercially,available inhibitors

[2] = MT-4 cells infected with NL4.3, six days, MTT assay, read-out: EC50

Row | Structure (SMILES) | pKi (HIV protease) | pEC50 [1, 2] | pEC50 [1]
1 | CC(C)CN([C@H](CO)CCCCNC(=O)[C@H](Cc1ccc2ccccc2c1)NC(=O)c1cccnc1)S(=O)(=O)c1ccc(N)cc1 [Example 54, (1S,5S)-N-(1-{5-[(4-Amino-benzenesulfonyl)-isobutyl-amino]-6-hydroxy-hexylcarbamoyl}-2-naphthalen-2-yl-ethyl)-nicotinanide] | 8.85 | 6.84 | 
2 | COC(=O)N[C@@H](Cc1ccccc1-c1ccc(OC)cc1)C(=O)NCCCC[C@@H](CO)N(CC(C)C)S(=O)(=O)c1ccc(OC)cc1 [Example 36, (1S,5S)-[1-{6-Hydroxy-5-[isobutyl-(4-methoxy-benzenesulfonyl)-amino]-hexylcarbamoyl}-2-(4′-methoxy-biphenyl-2-yl)-ethyl]-carbamic Acid Methyl Ester] | 8.49 |  | 5.66
3 | COC(=O)N[C@@H](Cc1ccc2ccccc2c1)C(=O)NCCC[C@@H](CO)N(CC(C)C)S(=O)(=O)c1ccc(N)cc1 [Example 1, (1S,4S)-(1-{4-[(4-Amino-benzenesulfonyl)-isobutyl-amino]-5-hydroxy-pentylcarbamoyl}-2-naphthalen-2-yl-ethyl)-carbamic Acid Methyl Ester] | 8.14 | 5.83 | 
4 | COC(=O)N[C@H](C(=O)NCCC[C@@H](CO)N(CC(C)C)S(=O)(=O)c1ccc(N)cc1)C(c1ccccc1)c1ccccc1 [Example 10, (1S,4S)-(1-{4-[(4-Amino-benzenesulfonyl)-isobutyl-amino]-5-hydroxy-pentylcarbamoyl}-2,2-diphenyl-ethyl)-carbamic Acid Methyl Ester] | 8.30 | 6.29 | 
5 | COC(=O)N[C@H](C(=O)NCCCC[C@@H](CO)N(CC(C)C)S(=O)(=O)c1ccc(N)cc1)C(c1ccccc1)c1ccccc1 [Example 34, (1S,5S)-(1-{5-[(4-Amino-benzenesulfonyl)-isobutyl-amino]-6-hydroxy-hexylcarbamoyl}-2,2-diphenyl-ethyl)-carbamic Acid Methyl Ester] | 9.30 | 7.92 | 
6 | CC(C)CN([C@H](CO)CCCNC(=O)[C@H](Cc1cccc2ccccc12)NC(=O)CC(F)(F)F)S(=O)(=O)c1ccc(N)cc1 [Example 12, (1S,4S)-N-(1-{4-[(4-Amino-benzenesulfonyl)-isobutyl-amino]-5-hydroxy-pentylcarbamoyl}-2-naphthalen-1-yl-ethyl)-3,3,3-trifluoro-propionamide] |  | 6.13 | 
7 | COC(=O)N[C@@H](Cc1ccccc1-c1cccc(F)c1)C(=O)NCCCC[C@@H](CO)N(CC(C)C)S(=O)(=O)c1ccc(F)c(N)c1 [Example 56, (1S,5S)-[1-{5-[(3-Amino-4-fluoro-benzenesulfonyl)-isobutyl-amino]-6-hydroxy-hexylcarbamoyl}-2-(3′-fluoro-biphenyl-2-yl)-ethyl]-carbamic Acid Methyl Ester] | 8.89 | 6.52 | 
8 | CC(C)CN([C@H](CO)CCCCNC(=O)[C@H](Cc1ccccc1-c1ccccc1)NC(=O)N1CCOCC1)S(=O)(=O)c1ccc(N)cc1 [Example 43, (1S,5S)-Morpholine-4-carboxylic Acid (1-{5-[(4-Amino-benzenesulfonyl)-isobutyl-amino]-6-hydroxy-hexylcarbamoyl}-2-biphenyl-2-yl-ethyl)-amide] | 9.22 | 6.16 | 
9 | CC(C)CN(C(CO)CCCCNC(=O)C(Cc1ccc2ccccc2c1)NC(=O)C1CCOC1)S(=O)(=O)c1ccc(N)cc1 [Example 37, (1S,3R,S,5S)-Tetrahydro-furan-3-carboxylic Acid (1-{5-[(4-Amino-benzenesulfonyl)-isobutyl-amino]-6-hydroxy-hexylcarbamoyl}-2-naphthalen-2-yl-ethyl)-amide] | 8.57 | 6.49 | 
10 | COc1ccc(S(=O)(=O)N(CC(C)C)[C@H](CO)CCCCNC(=O)[C@H](Cc2ccc3ccccc3c2)NC(=O)N2CCOCC2)cc1 [Example 35, (1S,5S)-Morpholine-4-carboxylic Acid (1-{6-Hydroxy-5-[isobutyl-(4-methoxy-benzenesulfonyl)-amino]-hexylcarbamoyl}-2-naphthalen-2-yl-ethyl)-amide] | 8.89 |  | 6.56
11 | CC(C)CN([C@H](CO)CCCCNC(=O)[C@H](Cc1ccc2ccccc2c1)NC(=O)CC(F)(F)F)S(=O)(=O)c1ccc(N)cc1 [Example 61, (1S,5S)-N-(1-{5-[(4-Amino-benzenesulfonyl)-isobutyl-amino]-6-hydroxy-hexylcarbamoyl}-2-naphthalen-2-yl-ethyl)-3,3,3-trifluoro-propionamide] |  | 6.79 | 
12 | Cc1ccc(C(=O)N[C@H](C(=O)NCCCC[C@@H](CO)N(CC(C)C)S(=O)(=O)c2ccc(N)cc2)C(c2ccccc2)c2ccccc2)cn1 [Example 112, (1S,5S)-N-(1-{5-[(4-Amino-benzenesulfonyl)-isobutyl-amino]-6-hydroxy-hexylcarbamoyl}-2,2-diphenyl-ethyl)-6-methyl-nicotinamide] | > 8.42 |  | 
13 | CCCN[C@@H](Cc1cccc2ccccc12)C(=O)NCCC[C@@H](CO)N(CC(C)C)S(=O)(=O)c1ccc(N)cc1 [Example 22, (2S,4S)-N-{4-[(4-Amino-benzenesulfonyl)-isobutyl-amino]-5-hydroxy-pentyl}-3-naphthalen-1-yl-2-propylamino-propionamide] | 8.60 |  | 
14 | CC(C)CN[C@@H](Cc1cccc2ccccc12)C(=O)NCCC[C@@H](CO)N(CC(C)C)S(=O)(=O)c1ccc(N)cc1 [Example 25, (2S,4S)-N-{4-[(4-Amino-benzenesulfonyl)-isobutyl-amino]-5-hydroxy-pentyl}-2-isobutylamino-3-naphthalen-1-yl-propionamide] | 8.43 |  | 
15 | CC(C)CN([C@H](CO)CCCCNC(=O)[C@H](Cc1ccc2ccccc2c1)NC(=O)C1CCCCC1)S(=O)(=O)c1ccc(N)cc1 [Example 42, (1S,5S)-Cyclohexanecarboxylic Acid (1-{5-[(4-Amino-benzenesulfonyl)-isobutyl-amino]-6-hydroxy-hexylcarbamoyl}-2-naphthalen-2-yl-ethyl)-amide] | 8.92 |  | 
16 | CC(C)CN([C@H](CO)CCCCNC(=O)[C@H](Cc1ccc2ccccc2c1)NC(=O)c1ccncc1)S(=O)(=O)c1ccc(F)c(N)c1 [Example 84, (1S,5S)-N-(1-{5-[(3-Amino-4-fluoro-benzenesulfonyl)-isobutyl-amino]-6-hydroxy-hexylcarbamoyl}-2-naphthalen-2-yl-ethyl)-isonicotinamide] | > 8.42 |  | 
17 | CC(C)CN([C@H](CO)CCCCNC(=O)[C@@H](NC(=O)c1ncccc1O)C(c1ccccc1)c1ccccc1)S(=O)(=O)c1ccc(N)cc1 [Example 108, (1S,5S)-3-Hydroxy-pyridine-2-carboxylic Acid-N-(1-{5-[(4-amino-benzenesulfonyl)-isobutyl-amino]-6-hydroxy-hexylcarbamoyl}-2,2-diphenyl-ethyl)-amide] | > 8.42 |  | 
18 | CC(C)CN([C@H](CO)CCCCNC(=O)[C@@H](NC(=O)c1ccccc1O)C(c1ccccc1)c1ccccc1)S(=O)(=O)c1ccc(N)cc1 [Example 104, (1S,5S)-N-(1-{5-[(4-Amino-benzenesulfonyl)-isobutyl-amino]-6-hydroxy-hexylcarbamoyl}-2,2-diphenyl-ethyl)-2-hydroxy-benzamide] | > 8.42 |  | 
19 | COC(=O)N[C@H](C(=O)NCCCC[C@@H](CO)N(CC(C)C)S(=O)(=O)c1ccc2c(c1)OCO2)C(c1ccccc1)c1ccccc1 [Example 67, (1S,5S)-(1-{5-[(Benzo[1,3]dioxole-5-sulfonyl)-isobutyl-amino]-6-hydroxy-hexylcarbamoyl}-2,2-diphenyl-ethyl)-carbamic Acid Methyl Ester] |  | 6.84 | 
20 | CC(C)CN([C@H](CO)CCCCNC(=O)[C@H](Cc1ccc2ccccc2c1)NC(=O)c1cnc[nH]1)S(=O)(=O)c1ccc(F)c(N)c1 [Example 114, (1S,5S)-3H-Imidazole-4-carboxylic Acid (1-{5-[(3-Amino-4-fluoro-benzenesulfonyl)-isobutyl-amino]-6-hydroxy-hexylcarbamoyl}-2-naphthalen-2-yl-ethyl)-amide] | > 8.42 |  | 
21 | CC(=O)N[C@@H](Cc1ccc2ccccc2c1)C(=O)NCCCC[C@@H](CO)N(CC(C)C)S(=O)(=O)c1ccc(F)c(N)c1 [Example 89, (2S,5S)-2-Acetylamino-N-{5-[(3-amino-4-fluoro-benzenesulfonyl)-isobutyl-amino]-6-hydroxy-hexyl}-3-naphthalen-2-yl-propionamide] | > 8.42 |  | 
22 | CC(C)CN([C@H](CO)CCCCNC(=O)[C@@H](NC(=O)c1ccc(O)c([N+](=O)[O-])c1)C(c1ccccc1)c1ccccc1)S(=O)(=O)c1ccc(N)cc1 [Example 103, (1S,5S)-N-(1-{5-[(4-Amino-benzenesulfonyl)-isobutyl-amino]-6-hydroxy-hexylcarbamoyl}-2,2-diphenyl-ethyl)-4-hydroxy-3-nitro-benzamide] | > 8.42 |  | 
23 | CC(C)CN([C@H](CO)CCCNC(=O)[C@H](Cc1cccc2ccccc12)NC(=O)OCC(F)(F)F)S(=O)(=O)c1ccc(N)cc1 [Example 7, (1S,4S)-(1-{4-[(4-Amino-benzenesulfonyl)-isobutyl-amino]-5-hydroxy-pentylcarbamoyl}-2-naphthalen-1-yl-ethyl)-carbamic Acid 2,2,2-Trifluoro-ethyl Ester] | 8.40 |  | 
24 | CC(C)CN([C@H](CO)CCCCNC(=O)[C@@H](NC(=O)c1ccc[nH]1)C(c1ccccc1)c1ccccc1)S(=O)(=O)c1ccc(N)cc1 [Example 98, (1S,5S)-Pyrrole-2-carboxylic Acid (1-{5-[(4-Amino-benzenesulfonyl)-isobutyl-amino]-6-hydroxy-hexylcarbamoyl}-2,2-diphenyl-ethyl)-amide] | > 8.42 |  | 
